Our source for the inhibition, IC50 and melting point values is article PMC8657793, “Synthesis, In Vitro and In Silico Anticancer Activity of New 4-Methylbenzamide Derivatives Containing 2,6-Substituted Purines as Potential Protein Kinases Inhibitors” (International Journal of Molecular Sciences, 2021).

One series concerns the target T1, InsR (Homo sapiens, UniProt P06213).
T1 construct: purchased Promega
Put plainly: Kinase Selectivity Profiling System TK-1 / ADP-Glo, InsR. In kind it is biochemical. The procedure: (§1) At the end, 10 μL of kinase detection reagent was added into the well and incubated for 30 min to produce a luminescence signal.
(ADP-Glo turns the ADP formed in a reaction into a luminescent signal.)

The target of a further series is T2, HER4 (Homo sapiens, UniProt Q15303).
T2 construct: purchased Promega
Put plainly: Kinase Selectivity Profiling System TK-1 / ADP-Glo, HER4. The format is biochemical. The procedure: as §1

The next series has as its system HeLa (cervix carcinoma). Put plainly: MTT anti-proliferative assay, HeLa. As to conditions: Homo sapiens, 48 h. The format is cell-based. The procedure:
(§2) To determine the selectivity of the synthesized compounds 7–16 toward various cancer cells and normal human cells, the anti-proliferative activity against K562 (chronic myelogenous leukemia), HL-60 (promyelocytic leukemia), MCF-7 (breast adenocarcinoma), HeLa (cervix carcinoma), HepG2 (human liver cancer), A549 (lung carcinoma), OKP-GS (renal cell carcinoma), and normal cells RPMI 1788 (B lymphocyte, the human cell line) was investigated.
(§3) Each in vitro experiment was performed at least in triplicate and the standard deviation of absorbance was less than 10% of the mean. For the in vitro assays, a stock solution (1% DMSO in the appropriate buffer with the tested compound diluted under sonication) was prepared from which several dilutions were made with the appropriate buffer.
(§4) Human cell lines were obtained from the Institute of Cytology, Russian Academy of Sciences. The cell lines studied were maintained in RPMI 1640 medium (AppliChem, Darmstadt, Germany) supplemented with 20% (HL-60, RPMI 1788) fetal calf serum (HyClone, Cramlington, UK), in DMEM (A 549) and Eagle’s MEM (AppliChem) (MCF7, HeLa) with 10% fetal calf serum (HyClone). Cells were cultivated at 37 °C in a humidified atmosphere of 5% CO2. Cellular sensitivities to synthesized compounds and standards were measured with the MTT assay. Cells were plated in triplicate in 96-well plates (10^5 cells/well for suspended cell cultures and 5 × 10^3 cells/well for monolayer cultures); on the same day (suspended cell cultures) or on the following day (monolayer cultures), compounds were added at the appropriate dilutions. Anti-proliferative activity was studied at concentrations 0.1–50.0 µM. The reference drugs were imatinib, sorafenib and nilotinib. Plates were incubated under standard conditions for 48 h. Thereafter, 10 μL MTT (Sigma) in phosphate-buffered saline (5 mg/mL) was added. The plates were incubated for an additional 4 h and 150 μL dimethylsulphoxide (DMSO) was added to dissolve the formazan crystals. The optical density was read on a HALO MPR-95 Microplate Reader (Dynamica Scientific Ltd., Melbourne, Victoria, Australia) at 570 nm. The antiproliferative effects were taken as degrees of inhibition of tumor cells (%). The average of three parallel measurements was calculated for each concentration of test compound. The degree of cell growth suppression was plotted as a function of the logarithm of the concentration. The half maximal inhibitory concentration (IC50) was determined graphically for active compounds.
A general note: Formazan colour is commonly taken as a measure of viable cells.

Series [1] concerns HL-60 (promyelocytic leukemia). Put plainly: MTT anti-proliferative assay, HL-60. The format is cell-based. As to conditions: Homo sapiens, 48 h. How it is done:
For the in vitro assays, a stock solution (1% DMSO in the appropriate buffer with the tested compound diluted under sonication) was prepared from which several dilutions were made with the appropriate buffer.
Human cell lines were obtained from the Institute of Cytology, Russian Academy of Sciences. […] Plates were incubated under standard conditions for 48 h.

The test system of series [2] is OKP-GS (renal cell carcinoma). Put plainly: MTT anti-proliferative assay, OKP-GS. As to conditions: Homo sapiens, 48 h. The format is cell-based. The procedure: as §2, §3, §4
The next series addresses T3, PDGFRα (Homo sapiens, UniProt P16234).
T3 construct: purchased Promega
Put plainly: Kinase Selectivity Profiling System TK-1 / ADP-Glo, PDGFRα. The format is biochemical. An excerpt: Considering the presence of a purine ring in the compounds under study, type 1 binding to protein kinases could be expected. We investigated the kinase selectivity of targeted compounds 7–16 against eight receptor tyrosine kinases including EGFR, HER2 and HER4 (epidermal growth factor receptors), IGF1R (insulin-like growth factor 1 receptor), InsR (insulin receptor), KDR (vascular endothelial growth factor receptor 2—VEGFR-2), and PDGFRα and PDGFRβ (platelet-derived growth factor receptors). The assay was performed using the Kinase Selectivity Profiling System TK-1 (Promega, Madison, WI, USA) and ADP-Glo™ Kinase assay kit (Promega, Madison, WI, USA). Kinase activity was measured by quantifying the […] following a kinase reaction. Enzymatic activity inhibition percentage caused by studied compounds was evaluated at the single concentration of 1 μM.
The Abl1 inhibitory activity assay was performed using Abl1 Kinase Enzyme System (Promega, Madison, WI, USA) and ADP-Glo™ Kinase assay kit (Promega, Madison, WI, USA) according to the Technical Manual. The general procedure was as follows: kinase (2.5 ng/reaction) was incubated with substrate (1 μg), compound (0.5 and 10µM) and ATP (50 μM) in a commercial buffer solution with a reaction volume of 5 μL. In every experiment, no-enzyme and no-compound control reactions were included to represent background luminescence (0% activity) and uninhibited kinase activity (100% activity), respectively. The assay 384-well plate was incubated at room temperature for 1 h. Afterwards, 5μL of ADP-Glo reagent was added into each well to stop the reaction and consume the […] within 40 min. At the end, 10 μL of kinase detection reagent was added into the well and incubated for 30 min to produce a luminescence signal. Kinase activity assays were performed in triplicate at each inhibitor concentration. The luminescence was measured with the help of a Tecan Infinite M200 Plate Reader. The luminescence data were analyzed using the computer software, Magellan™. Percent kinase activity (KA) was calculated by subtracting the average no-enzyme control luminescence values from all kinase-containing reactions with or without compound, then converting these net luminescence values to percent activity based on the no-compound control reactions representing 100% kinase activity. Inhibition (I, %) was calculated as 100%-KA.
The single-dose screening of kinase selectivity was performed using Kinase Selectivity Profiling System TK-1 (Promega, Madison, WI, USA) and ADP-Glo™ Kinase assay kit (Promega, Madison, WI, USA) according to Technical Manual. Kinase Selectivity Profiling System TK-1 includes a set of kinases from the tyrosine kinase family (EGFR, HER2, HER4, IGF1R, InsR, KDR, PDGFα, PDGFβ) in 8-tube strip format. The general procedure was as follow: kinase working stock (2 µL/reaction) was incubated with ATP/substrate working stock (1 µL) and compound (1 µM) in a commercial buffer solution with a reaction volume of 5 μL. The reaction conditions and inhibition (%) calculation were the same as in Section 3.3.1. Kinase activity assays were performed in duplicate at each inhibitor.

In a further series the target is T4, EGFR (Homo sapiens, UniProt P00533).
T4 construct: purchased Promega
Put plainly: Kinase Selectivity Profiling System TK-1 / ADP-Glo, EGFR. The format is biochemical. The procedure:
as §1

For the next series, the system named is A549 (lung carcinoma). Put plainly: MTT anti-proliferative assay, A549. The format is cell-based. To be noted: Homo sapiens, 48 h. How it is done:
as §2, §3, §4

Another series addresses T5, KDR (VEGFR-2) (Homo sapiens, UniProt P35968).
T5 construct: purchased Promega
Put plainly: Kinase Selectivity Profiling System TK-1 / ADP-Glo, KDR. In kind it is biochemical. How it is done: as §1

The target of a further series is T6, IGF1R (Homo sapiens, UniProt P08069).
T6 construct: purchased Promega
Put plainly: Kinase Selectivity Profiling System TK-1 / ADP-Glo, IGF1R. In kind it is biochemical. The procedure: as §1

T6 sequence (P08069 31-1367): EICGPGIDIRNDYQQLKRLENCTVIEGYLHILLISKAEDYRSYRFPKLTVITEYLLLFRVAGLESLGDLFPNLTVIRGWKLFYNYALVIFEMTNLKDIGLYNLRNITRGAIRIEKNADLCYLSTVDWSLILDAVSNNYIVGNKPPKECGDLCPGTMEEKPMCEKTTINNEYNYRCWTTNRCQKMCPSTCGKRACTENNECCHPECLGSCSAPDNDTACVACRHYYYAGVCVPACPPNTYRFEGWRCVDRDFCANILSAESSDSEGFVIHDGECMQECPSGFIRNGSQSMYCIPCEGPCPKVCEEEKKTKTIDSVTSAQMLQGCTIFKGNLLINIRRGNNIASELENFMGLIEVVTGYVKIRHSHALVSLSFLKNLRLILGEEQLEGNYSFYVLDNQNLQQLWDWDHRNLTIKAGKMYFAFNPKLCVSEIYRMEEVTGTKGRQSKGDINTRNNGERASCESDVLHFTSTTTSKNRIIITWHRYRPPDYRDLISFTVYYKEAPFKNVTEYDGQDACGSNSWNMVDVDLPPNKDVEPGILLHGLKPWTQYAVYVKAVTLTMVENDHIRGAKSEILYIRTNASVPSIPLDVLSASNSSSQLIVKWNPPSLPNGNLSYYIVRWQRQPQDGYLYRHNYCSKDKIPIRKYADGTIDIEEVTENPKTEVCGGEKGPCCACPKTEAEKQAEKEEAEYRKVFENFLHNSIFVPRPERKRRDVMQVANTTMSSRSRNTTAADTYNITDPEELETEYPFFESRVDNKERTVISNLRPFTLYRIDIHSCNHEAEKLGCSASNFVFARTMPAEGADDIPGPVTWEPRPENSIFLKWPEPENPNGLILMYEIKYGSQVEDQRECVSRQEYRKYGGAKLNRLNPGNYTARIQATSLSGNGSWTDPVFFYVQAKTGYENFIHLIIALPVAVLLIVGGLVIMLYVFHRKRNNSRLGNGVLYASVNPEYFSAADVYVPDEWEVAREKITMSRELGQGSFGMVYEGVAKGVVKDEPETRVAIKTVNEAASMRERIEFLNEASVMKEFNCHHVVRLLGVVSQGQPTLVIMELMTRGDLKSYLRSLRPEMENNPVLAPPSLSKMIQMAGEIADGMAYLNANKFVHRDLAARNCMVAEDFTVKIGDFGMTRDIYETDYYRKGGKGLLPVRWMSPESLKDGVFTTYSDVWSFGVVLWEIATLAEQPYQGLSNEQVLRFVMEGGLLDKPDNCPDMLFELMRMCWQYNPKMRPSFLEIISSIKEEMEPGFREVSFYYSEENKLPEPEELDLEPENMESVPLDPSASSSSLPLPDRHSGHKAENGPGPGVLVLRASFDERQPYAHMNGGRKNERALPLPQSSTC
T4 sequence (P00533 25-1210): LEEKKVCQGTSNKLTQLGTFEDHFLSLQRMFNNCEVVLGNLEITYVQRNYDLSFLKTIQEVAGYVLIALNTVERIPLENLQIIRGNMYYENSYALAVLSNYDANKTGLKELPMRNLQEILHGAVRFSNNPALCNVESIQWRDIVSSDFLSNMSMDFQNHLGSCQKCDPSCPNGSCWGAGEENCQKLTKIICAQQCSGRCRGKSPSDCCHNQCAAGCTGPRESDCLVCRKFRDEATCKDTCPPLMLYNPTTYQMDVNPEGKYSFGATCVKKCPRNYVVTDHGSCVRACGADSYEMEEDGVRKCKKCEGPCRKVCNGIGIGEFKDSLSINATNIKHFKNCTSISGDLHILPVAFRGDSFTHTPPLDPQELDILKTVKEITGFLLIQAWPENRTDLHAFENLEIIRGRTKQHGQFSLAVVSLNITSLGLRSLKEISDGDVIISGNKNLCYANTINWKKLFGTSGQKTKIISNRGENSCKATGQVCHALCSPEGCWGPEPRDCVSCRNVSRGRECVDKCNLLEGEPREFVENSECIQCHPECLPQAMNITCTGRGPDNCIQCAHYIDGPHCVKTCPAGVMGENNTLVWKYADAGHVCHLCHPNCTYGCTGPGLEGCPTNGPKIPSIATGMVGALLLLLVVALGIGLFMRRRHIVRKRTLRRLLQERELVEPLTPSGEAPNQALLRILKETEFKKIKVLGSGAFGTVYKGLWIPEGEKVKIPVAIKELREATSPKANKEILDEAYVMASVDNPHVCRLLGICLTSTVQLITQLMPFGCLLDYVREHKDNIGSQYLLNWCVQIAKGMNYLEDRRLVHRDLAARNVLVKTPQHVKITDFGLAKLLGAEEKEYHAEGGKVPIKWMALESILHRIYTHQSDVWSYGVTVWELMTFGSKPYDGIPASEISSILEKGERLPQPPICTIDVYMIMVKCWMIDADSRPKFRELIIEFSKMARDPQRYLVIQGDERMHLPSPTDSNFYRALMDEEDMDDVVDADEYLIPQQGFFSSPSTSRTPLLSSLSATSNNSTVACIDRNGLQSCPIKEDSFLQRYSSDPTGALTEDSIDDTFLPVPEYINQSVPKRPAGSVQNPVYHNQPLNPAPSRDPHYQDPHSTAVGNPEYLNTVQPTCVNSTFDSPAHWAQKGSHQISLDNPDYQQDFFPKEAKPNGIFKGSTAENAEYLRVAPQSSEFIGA
T2 sequence (Q15303 26-1308): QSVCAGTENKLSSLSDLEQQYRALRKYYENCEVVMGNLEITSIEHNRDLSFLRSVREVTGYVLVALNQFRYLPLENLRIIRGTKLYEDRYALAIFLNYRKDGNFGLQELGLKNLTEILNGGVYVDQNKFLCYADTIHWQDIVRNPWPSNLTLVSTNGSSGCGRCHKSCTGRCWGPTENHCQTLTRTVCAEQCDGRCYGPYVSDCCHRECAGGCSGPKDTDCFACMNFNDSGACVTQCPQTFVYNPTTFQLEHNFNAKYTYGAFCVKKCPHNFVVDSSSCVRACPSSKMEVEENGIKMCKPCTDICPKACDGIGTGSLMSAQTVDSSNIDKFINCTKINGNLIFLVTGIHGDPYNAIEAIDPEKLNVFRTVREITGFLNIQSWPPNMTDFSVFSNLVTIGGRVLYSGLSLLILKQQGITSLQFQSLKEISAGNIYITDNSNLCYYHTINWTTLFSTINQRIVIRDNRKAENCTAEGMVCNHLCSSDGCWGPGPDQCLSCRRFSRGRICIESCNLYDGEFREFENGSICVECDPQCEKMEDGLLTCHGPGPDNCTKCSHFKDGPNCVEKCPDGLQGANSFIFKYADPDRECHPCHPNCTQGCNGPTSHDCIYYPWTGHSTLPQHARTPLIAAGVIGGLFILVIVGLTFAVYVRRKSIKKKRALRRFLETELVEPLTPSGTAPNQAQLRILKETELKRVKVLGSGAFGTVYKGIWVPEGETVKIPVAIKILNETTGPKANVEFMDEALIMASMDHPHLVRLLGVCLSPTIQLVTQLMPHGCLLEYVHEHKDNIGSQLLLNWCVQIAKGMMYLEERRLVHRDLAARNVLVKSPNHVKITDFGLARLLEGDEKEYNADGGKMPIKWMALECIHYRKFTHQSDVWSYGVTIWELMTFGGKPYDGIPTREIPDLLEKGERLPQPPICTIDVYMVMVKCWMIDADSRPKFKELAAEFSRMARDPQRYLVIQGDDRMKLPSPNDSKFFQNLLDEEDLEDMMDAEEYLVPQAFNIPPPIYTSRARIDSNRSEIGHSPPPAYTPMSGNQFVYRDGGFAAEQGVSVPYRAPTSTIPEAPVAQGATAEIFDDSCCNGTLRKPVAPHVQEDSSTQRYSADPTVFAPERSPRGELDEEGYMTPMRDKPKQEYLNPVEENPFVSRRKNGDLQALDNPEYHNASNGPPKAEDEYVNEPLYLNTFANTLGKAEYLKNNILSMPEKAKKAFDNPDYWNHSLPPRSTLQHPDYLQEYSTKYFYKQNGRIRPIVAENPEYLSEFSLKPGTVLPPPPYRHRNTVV
T3 sequence (P16234 24-1089): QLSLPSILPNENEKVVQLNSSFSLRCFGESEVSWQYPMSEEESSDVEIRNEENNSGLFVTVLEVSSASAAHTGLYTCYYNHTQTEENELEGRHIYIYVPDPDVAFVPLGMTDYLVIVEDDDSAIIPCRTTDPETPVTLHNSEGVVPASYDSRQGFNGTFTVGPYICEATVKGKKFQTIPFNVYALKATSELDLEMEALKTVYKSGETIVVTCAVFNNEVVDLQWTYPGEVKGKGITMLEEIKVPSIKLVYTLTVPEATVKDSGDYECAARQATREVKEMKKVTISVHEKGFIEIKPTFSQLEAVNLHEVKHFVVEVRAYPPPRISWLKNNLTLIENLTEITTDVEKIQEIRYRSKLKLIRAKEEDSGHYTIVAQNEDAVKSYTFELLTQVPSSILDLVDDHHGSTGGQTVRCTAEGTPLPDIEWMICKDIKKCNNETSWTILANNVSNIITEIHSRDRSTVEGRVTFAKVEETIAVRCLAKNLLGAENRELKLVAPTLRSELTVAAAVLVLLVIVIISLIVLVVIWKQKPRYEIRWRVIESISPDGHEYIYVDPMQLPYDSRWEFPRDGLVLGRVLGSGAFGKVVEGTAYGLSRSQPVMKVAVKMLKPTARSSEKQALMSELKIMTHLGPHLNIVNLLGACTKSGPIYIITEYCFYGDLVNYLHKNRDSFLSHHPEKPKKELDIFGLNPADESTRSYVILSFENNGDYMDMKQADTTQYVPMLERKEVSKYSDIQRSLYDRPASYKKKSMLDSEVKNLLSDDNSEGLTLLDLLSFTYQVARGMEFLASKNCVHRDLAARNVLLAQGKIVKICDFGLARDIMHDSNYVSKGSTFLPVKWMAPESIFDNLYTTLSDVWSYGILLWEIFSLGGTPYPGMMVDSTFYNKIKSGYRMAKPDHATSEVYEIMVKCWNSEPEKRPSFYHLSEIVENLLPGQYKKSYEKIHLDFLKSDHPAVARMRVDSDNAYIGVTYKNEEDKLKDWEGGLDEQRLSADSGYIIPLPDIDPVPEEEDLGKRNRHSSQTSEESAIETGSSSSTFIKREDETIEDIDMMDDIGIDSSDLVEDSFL

A word on the inhibition: it is the relative decrease from the control value, in per cent. Higher therefore signals a strong effect. Broadly, the IC50 is the concentration needed to halve the response being measured. A low value points to inhibition by little substance. In the case of `O=C(Nc1cccc(C(F)(F)F)c1)c1ccc(Cn2cnc3c(Cl)nc(Cl)nc32)cc1` [Compound 7, 4-((2,6-Dichloro-9H-purin-9-yl)methyl)-N-(3-(trifluoromethyl)phenyl)benzamide], the inhibition at 1 µM amounted to 6% at InsR; 0% on HER4; 40% against PDGFRα; 6% against EGFR; 11% on KDR (VEGFR-2); 0% against IGF1R. Also, the half-inhibitory concentration (IC50) in the series on HeLa (cervix carcinoma) stood at 6.93 ± 1.18 µM; in [1], 1.42 ± 0.54 µM; in series [2] it was 4.56 ± 1.73 µM; in the series with A549 (lung carcinoma), 26.9 ± 0.64 µM.
Broadly, the melting point is the temperature of the solid-liquid transition. In the case of `COc1nc(Cl)nc2c1ncn2Cc1ccc(C(=O)Nc2cccc(C(F)(F)F)c2)cc1` [Compound 13, 4-((2-Chloro-6-methoxy-9H-purin-9-yl)methyl)-N-(3-(trifluoromethyl)phenyl)benzamide], the melting point lay in the range of 212 to 214 °C. Besides, the inhibition at 1 µM against InsR came to 0%. This compound also registered an inhibition at 1 µM on HER4 of 0%. In the series on HeLa (cervix carcinoma), this compound yielded an IC50 of 15.4 ± 1.92 µM. In series [1], this compound registered an IC50 of 26.1 ± 1.23 µM. The compound also returned an IC50 in series [2] of 15.5 ± 2.27 µM. This compound also showed an inhibition at 1 µM against PDGFRα of 10%. This compound came in with an inhibition at 1 µM at EGFR of 29%. The compound further showed a 50% inhibitory concentration (IC50) in the series with A549 (lung carcinoma) of 13 ± 0.67 µM. At KDR (VEGFR-2), this compound had an inhibition at 1 µM of 30%. This compound yielded an inhibition at 1 µM at IGF1R of 0%.
`CNC(=O)c1cc(Oc2ccc(NC(=O)Nc3ccc(Cl)c(C(F)(F)F)c3)cc2)ccn1` [Sorafenib, sorafenib, reference compound]: the 50% inhibitory concentration (IC50) in the series on HeLa (cervix carcinoma) was 6.82 ± 2.64 µM; in series [2], 13.6 ± 1.71 µM; with A549 (lung carcinoma), 6.01 ± 1.27 µM. In addition, the inhibition at 1 µM on PDGFRα is 98%.
For the compound `Cc1cn(-c2cc(NC(=O)c3ccc(Cn4cnc5c(Cl)nc(Cl)nc54)cc3)cc(C(F)(F)F)c2)cn1` [Compound 10, 4-((2,6-Dichloro-9H-purin-9-yl)methyl)-N-(3-(4-methyl-1H-imidazol-1-yl)-5-(trifluoromethyl)-phenyl)benzamide], the inhibition at 1 µM at InsR is 0%; against HER4, 0%; against PDGFRα it was 37%; against EGFR, 9%; against KDR (VEGFR-2), 16%; against IGF1R, 0%. The half-maximal inhibitory concentration (IC50) is 6.05 ± 1.03 µM in the series on HeLa (cervix carcinoma), 1.52 ± 0.66 µM in series [1], 24.8 ± 3.25 µM in series [2] and 18 ± 0.73 µM in the series with A549 (lung carcinoma).
Take `Nc1nc(Cl)nc2c1ncn2Cc1ccc(C(=O)Nc2cccc(C(F)(F)F)c2)cc1` [Compound 15, 4-((6-Amino-2-chloro-9H-purin-9-yl)methyl)-N-(3-(trifluoromethyl)phenyl)benzamide]: the melting point was in the range of 272 to 274 °C. Moreover, at 1 µM the inhibition against InsR was 0%. The compound also registered an inhibition at 1 µM on HER4 of 0%. The concentration for half-maximal inhibition (IC50) in [1] is 7.18 µM. This compound also came in with an inhibition at 1 µM at PDGFRα of 16%. Moreover, the inhibition at 1 µM against EGFR stood at 0%. The compound also came in with an inhibition at 1 µM against KDR (VEGFR-2) of 13%. Further, at IGF1R, testing at 1 µM gave an inhibition of 0%.
Take `COc1nc(Cl)nc2c1ncn2Cc1ccc(C(=O)Nc2cc(-n3cnc(C)c3)cc(C(F)(F)F)c2)cc1` [Compound 14, 4-((2-Chloro-6-methoxy-9H-purin-9-yl)methyl)-N-(3-(4-methyl-1H-imidazol-1-yl)-5-(trifluoromethyl)phenyl)benzamide]: the melting point fell in the range of 160 to 162 °C. The compound further yielded an inhibition at 1 µM on InsR of 17%. This compound also yielded an inhibition at 1 µM on HER4 of 0%. The compound also displayed an IC50 in the series on HeLa (cervix carcinoma) of 33.7 ± 7.49 µM. In addition, the IC50 in [1] was determined as 48.6 ± 3.02 µM. In addition, in series [2], half-maximal inhibition (IC50) required 10.6 ± 2.88 µM. Besides, testing at 1 µM on PDGFRα gave an inhibition of 16%. The compound also showed an inhibition at 1 µM against EGFR of 9%. Also, it took 20.1 ± 0.81 µM to reach half-maximal inhibition with A549 (lung carcinoma) (IC50). Further, the inhibition at 1 µM on KDR (VEGFR-2) is 27%. At IGF1R, this compound displayed an inhibition at 1 µM of 0%.
